The target of one assay is HIV-1 protease (Human immunodeficiency virus type 1 group M subtype B, UniProt P04585). Briefly: biochemical. Conditions: Table 12; HIV-1 protease; read-out: Ki.
The subject of another assay is HIV-1 (strain IIIB). Kind of assay: microbe, parasite or virus in culture. The class given is cell-based. Conditions: Human immunodeficiency virus 1, IIIB, read-out: IC50.
Setting [1] is: MT4, Table 12, anti-viral potency in MT-4 cells.

Each structure is given as a SMILES string. Where two headings read alike, the source gives them in different places.

A word on the Ki: it is the dissociation constant of the complex between target and ligand, obtained from inhibition or displacement. For orientation: IC50 means the concentration at which inhibition is half-maximal. Turning to `CNC(=O)CNC(=O)NCCCC(C)(C)CN(CC(O)C(Cc1ccccc1)NC(=O)OC1COC2OCCC12)S(=O)(=O)c1ccc(OC)cc1` [Compound 225, (3R,3aS,6aR)hexahydrofuro[2,3-b]furan-3-yl N-(1S,2R)-1-benzyl-2-hydroxy-4-[(4-methoxyphenyl)sulfonyl]-6,6-dimethyl-11,14-dioxo-4,10,12,15-tetraazahexadec-1-ylcarbamate and (3S,3aR,6aS)hexahydrofuro[2,3-b]furan-3-yl N-(1S,2R)-1-benzyl-2-hydroxy-4-[(4-methoxyphenyl)sulfonyl]-6,6-dimethyl-11,14-dioxo-4,10,12,15-tetraazahexadec-1-ylcarbamate], the Ki at HIV-1 protease was under 0.001 µM. Also, in the assay on HIV-1 (strain IIIB) (setting [1]), the IC50 was over 1 µM.

With `COc1ccc(S(=O)(=O)N(C[C@@H](O)[C@H](Cc2ccccc2)NC(=O)O[C@H]2CCOC2)CC(C)(C)CCC(C)=O)cc1` [Compound 208, (3S)-Tetrahydro-3-furanyl N-((1S,2R)-1-benzyl-3-(2-,2-dimethyl-5-oxohexyl)[(4-methoxyphenyl)sulfonyl]amino-2-hydroxypropyl)carbamate], the Ki at HIV-1 protease is under 0.001 µM. The IC50 in the assay with HIV-1 (strain IIIB) (setting [1]) is 0.1 to 0.5 µM.

Take `COc1ccc(S(=O)(=O)N(CC(O)C(Cc2ccccc2)NC(=O)OC2COC3OCCC23)CC(C)(C)CCCNS(C)(=O)=O)cc1` [Compound 215, (3R,3aS,6aR)hexahydrofuro[2,3-b]furan-3-yl N-((1S,2R)-1-benzyl-3-2,2-dimethyl-5-[(methylsulfonyl)amino]pentyl[(4-methoxyphenyl)sulfonyl]amino-2-hydroxypropyl)carbamate and (3S,3aR, 6aS)hexahydrofuro[2,3-b]furan-3-yl N-((1s,2R)-1-benzyl-3-2,2-dimethyl-5-[(methylsulfonyl)amino]pentyl[(4-methoxyphenyl)sulfonyl]amino-2-hydroxypropyl)carbamate]: on HIV-1 protease, the Ki was under 0.001 µM. For the same compound, in the assay on HIV-1 (strain IIIB) (setting [1]), the IC50 is at most 0.1 µM.

For `CC(C)(CCCCNS(C)(=O)=O)CN(C[C@@H](O)[C@H](Cc1ccccc1)NC(=O)O[C@H]1CO[C@H]2OCC[C@H]21)S(=O)(=O)c1ccc2c(c1)OCCO2` [Compound 256, (3R,3aS,6aR)hexahydrofuro[2,3-b]furan-3-yl N-[(1S,2R)-1-benzyl-3-((2,3-dihydro-1,4-benzodioxin-6-ylsulfonyl)2,2-dimethyl-6-[(methylsulfonyl)amino]hexylamino)-2-hydroxypropyl]carbamate], the Ki on HIV-1 protease was under 0.001 µM. The half-inhibitory concentration (IC50) with HIV-1 (strain IIIB) (setting [1]) is at most 0.1 µM.

On to `CCN(C(=O)OC(C)(C)C)c1cccc(S(=O)(=O)N(CC(O)C(Cc2ccccc2)NC(=O)OC2COC3OCCC23)CC(C)(C)CCC#N)c1` [Compound 43, {(1S,2R)-3-[(3-N-tert-butoxycarbonyl-N-ethylaminophenyl)sulfonyl]-(4-cyano-2,2-dimethyl-butyl)-amino]-1-benzyl-2-hydroxy-propyl}-carbamic acid (3R,3aS,6aR)hexahydro-furo[2,3-b]furan-3-yl ester], for which the Ki at HIV-1 protease was under 0.001 µM. The IC50 with HIV-1 (strain IIIB) (setting [1]) fell in the range of 0.1 to 0.5 µM.

For the compound `CNc1cccc(S(=O)(=O)N(C[C@@H](O)[C@H](Cc2ccccc2)NC(=O)O[C@H]2CO[C@H]3OCC[C@H]32)CC(C)(C)CCC#N)c1` [Compound 12, (3R,3aS,6aR)-Hexahydrofuro[2,3-b]furan-3-yl N-[(1S,2R)-1-benzyl-3-((4-cyano-2,2-dimethylbutyl)[3-(methylamino)-phenyl]sulfonylamino)-2-hydroxypropyl]carbamate], the Ki on HIV-1 protease was under 0.001 µM. Further, the IC50 was at most 0.1 µM in the assay with HIV-1 (strain IIIB) (setting [1]) and 0.001 to 0.01 µM in the assay with HIV-1 (strain IIIB) (MT4, Table 13, MT-4 cell based assay, class symbol).

For the compound `COC(=O)NCCCCC(C)(C)CN(C[C@@H](O)[C@H](Cc1ccccc1)NC(=O)O[C@H]1CO[C@H]2OCC[C@H]21)S(=O)(=O)c1ccc2c(c1)OCO2` [Compound 248, (3R,3aS, 6aR)hexahydrofuro[2,3-b]furan-3-yl N-[(1S,2R)-3-((1,3-benzodioxol-5-ylsulfonyl)6-[(methoxycarbonyl)amino]-2,2-dimethylhexylamino)-1-benzyl-2-hydroxypropyl]carbamate], at HIV-1 protease, the Ki was under 0.001 µM. Besides, the IC50 in the assay with HIV-1 (strain IIIB) (setting [1]) is at most 0.1 µM.

These data come from patent publication US6617350B2, “Inhibitors of aspartyl protease” (priority 1999, dated 2003).
